# Reference: patent US6914045B2, “Glycopeptide antibiotics” (Wyeth Holdings Corporation, priority 2001, dated 2005)
# Key:
# Assay in all cases: in vitro antibacterial evaluation, MIC by broth dilution
# Type in all cases: cell-based
# Escherichia coli = system: Escherichia coli
# In short: (§1)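 Step 1: dilute antibiotic across 64-0.06 μg/mL in Muller-Hinton II […]. Step 2: inoculate at 5×10^5 CFU/mL.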
# Staphylococcus sp. = settings: broth dilution, 18 hours at 35° C.; for MIC Staphylococcus aureus (GC 1131): strain GC 1131
# In short: as §1
# Streptococcus sp. = settings: broth dilution, 18 hours at 35° C.; for MIC Streptococcus pneumoniae (ATCC 6301): strain ATCC 6301; for MIC Streptococcus pneumoniae (GC 1894): strain GC 1894; for MIC Streptococcus pyogenes (GC 4563): strain GC 4563; for MIC Streptococcus agalactiae (GC 4564): strain GC 4564; for MIC Streptococcus pneumoniae (GC 4565): strain GC 4565
# In short: as §1
# Enterococcus sp. = settings: broth dilution, 18 hours at 35° C.; for MIC Enterococcus faecalis (ATCC 29212): strain ATCC 29212; for MIC Enterococcus faecalis (GC 2242): strain GC 2242; for MIC Enterococcus faecium (GC 2243): strain GC 2243; for MIC Enterococcus faecalis (GC 2691): strain GC 2691; for MIC Enterococcus faecalis (GC 3059): strain GC 3059; for MIC Enterococcus faecalis (GC 4552): strain GC 4552; for MIC Enterococcus faecalis (GC 4553): strain GC 4553; for MIC Enterococcus faecalis (GC 4554): strain GC 4554; for MIC Enterococcus faecium (GC 4556): strain GC 4556; for MIC Enterococcus faecium (GC 4557): strain GC 4557; for MIC Enterococcus avium (GC 4558): strain GC 4558; for MIC Enterococcus faecalis (GC 6189): strain GC 6189
# In short: as §1
structure (smiles),measurement,setting,value
"CC(c1ccccc1)C1NC(=O)CNC(=O)C(CO)NC(=O)C(C(O)C2CNC(=N)N2C2OC(CO)C(O)C(O)C2O)NC(=O)C(C(O)C2CNC(=N)N2)NC(=O)C(Cc2ccc(OC3OC(CO)C(OC4OC5COC(c6ccc(-c7ccc(Cl)cc7)cc6)OC5C(O)C4O)C(O)C3O)cc2)NC1=O (stereo not drawn) [Example 178, Cyclo[glycyl-β-methylphenylalanyl-O-[4-O-[4,6-O-[4-(4-chlorophenyl)benzylidene]hexopyranosyl]hexopyranosyl]tyrosyl-3-(2-iminoimidazolidin-4-yl)seryl-3-(3-hexopyranosyl-2-iminoimidazolidin-4-yl)serylseryl]]",MIC Escherichia coli (ATCC 25922),"Escherichia coli; strain ATCC 25922, 18 hours at 35° C.",>64 µg/mL
same,MIC Escherichia coli (GC 4559),"Escherichia coli; strain GC 4559, 18 hours at 35° C.",>64 µg/mL
same,MIC Escherichia coli (GC 4560),"Escherichia coli; strain GC 4560, 18 hours at 35° C.",16 µg/mL
same,MIC Staphylococcus aureus (GC 1131),Staphylococcus sp.; inoculum 5×10^5 CFU/mL,4 µg/mL
same,MIC Staphylococcus aureus (ATCC 29213),Staphylococcus sp.; strain ATCC 29213,16 µg/mL
same,MIC Staphylococcus aureus (GC 1131),Staphylococcus sp.,4 µg/mL
same,MIC Staphylococcus aureus (GC 3051),Staphylococcus sp.; strain GC 3051,8 µg/mL
same,MIC Staphylococcus aureus (GC 3053),Staphylococcus sp.; strain GC 3053,4 µg/mL
same,MIC Staphylococcus aureus (GC 4541),Staphylococcus sp.; strain GC 4541,8 µg/mL
same,MIC Staphylococcus aureus (GC 4542),Staphylococcus sp.; strain GC 4542,8 µg/mL
same,MIC Staphylococcus aureus (GC 4544),Staphylococcus sp.; strain GC 4544,8 µg/mL
same,MIC Staphylococcus aureus (GC 4545),Staphylococcus sp.; strain GC 4545,4 µg/mL
same,MIC Staphylococcus aureus-SMITH (GC 4543),Staphylococcus sp.; strain GC 4543,4 µg/mL
same,MIC Staphylococcus haemolyticus (GC 4546),Staphylococcus sp.; strain GC 4546,8 µg/mL
same,MIC Coagulase Negative Staphylococcus (GC 4547),Staphylococcus sp.; strain GC 4547,32 µg/mL
same,MIC Coagulase Negative Staphylococcus (GC 4548),Staphylococcus sp.; strain GC 4548,0.5 µg/mL
same,MIC Coagulase Negative Staphylococcus (GC 4549),Staphylococcus sp.; strain GC 4549,2 µg/mL
same,MIC Coagulase Negative Staphylococcus (GC 4551),Staphylococcus sp.; strain GC 4551,4 µg/mL
same,MIC Coagulase Negative Staphylococcus (GC 6257),Staphylococcus sp.; strain GC 6257,2 µg/mL
same,MIC Streptococcus pneumoniae (ATCC 6301),Streptococcus sp.; inoculum 5×10^5 CFU/mL,<0.06 µg/mL
same,MIC Streptococcus pneumoniae (GC 1894),Streptococcus sp.; inoculum 5×10^5 CFU/mL,<0.06 µg/mL
same,MIC Streptococcus pyogenes (GC 4563),Streptococcus sp.; inoculum 5×10^5 CFU/mL,0.12 µg/mL
same,MIC Streptococcus agalactiae (GC 4564),Streptococcus sp.; inoculum 5×10^5 CFU/mL,<0.06 µg/mL
same,MIC Streptococcus pneumoniae (GC 4565),Streptococcus sp.; inoculum 5×10^5 CFU/mL,<0.06 µg/mL
same,MIC Streptococcus pneumoniae (ATCC 6301),Streptococcus sp.,<0.06 µg/mL
same,MIC Streptococcus pneumoniae (GC 1894),Streptococcus sp.,<0.06 µg/mL
same,MIC Streptococcus pyogenes (GC 4563),Streptococcus sp.,0.12 µg/mL
same,MIC Streptococcus agalactiae (GC 4564),Streptococcus sp.,<0.06 µg/mL
same,MIC Streptococcus pneumoniae (GC 4565),Streptococcus sp.,<0.06 µg/mL
same,MIC Enterococcus faecalis (ATCC 29212),Enterococcus sp.; inoculum 5×10^5 CFU/mL,4 µg/mL
same,MIC Enterococcus faecalis (GC 2242),Enterococcus sp.; inoculum 5×10^5 CFU/mL,2 µg/mL
same,MIC Enterococcus faecium (GC 2243),Enterococcus sp.; inoculum 5×10^5 CFU/mL,4 µg/mL
same,MIC Enterococcus faecalis (GC 2691),Enterococcus sp.; inoculum 5×10^5 CFU/mL,1 µg/mL
same,MIC Enterococcus faecalis (GC 3059),Enterococcus sp.; inoculum 5×10^5 CFU/mL,16 µg/mL
same,MIC Enterococcus faecalis (GC 4552),Enterococcus sp.; inoculum 5×10^5 CFU/mL,4 µg/mL
same,MIC Enterococcus faecalis (GC 4553),Enterococcus sp.; inoculum 5×10^5 CFU/mL,2 µg/mL
same,MIC Enterococcus faecalis (GC 4554),Enterococcus sp.; inoculum 5×10^5 CFU/mL,2 µg/mL
same,MIC Enterococcus faecium (GC 4556),Enterococcus sp.; inoculum 5×10^5 CFU/mL,4 µg/mL
same,MIC Enterococcus faecium (GC 4557),Enterococcus sp.; inoculum 5×10^5 CFU/mL,8 µg/mL
same,MIC Enterococcus avium (GC 4558),Enterococcus sp.; inoculum 5×10^5 CFU/mL,4 µg/mL
same,MIC Enterococcus faecalis (GC 6189),Enterococcus sp.; inoculum 5×10^5 CFU/mL,0.5 µg/mL
same,MIC Enterococcus faecalis (ATCC 29212),Enterococcus sp.,4 µg/mL
same,MIC Enterococcus faecalis (GC 2242),Enterococcus sp.,2 µg/mL
same,MIC Enterococcus faecium (GC 2243),Enterococcus sp.,4 µg/mL
same,MIC Enterococcus faecalis (GC 2691),Enterococcus sp.,1 µg/mL
same,MIC Enterococcus faecalis (GC 3059),Enterococcus sp.,16 µg/mL
same,MIC Enterococcus faecalis (GC 4552),Enterococcus sp.,4 µg/mL
same,MIC Enterococcus faecalis (GC 4553),Enterococcus sp.,2 µg/mL
same,MIC Enterococcus faecalis (GC 4554),Enterococcus sp.,2 µg/mL
same,MIC Enterococcus faecium (GC 4556),Enterococcus sp.,4 µg/mL
same,MIC Enterococcus faecium (GC 4557),Enterococcus sp.,8 µg/mL
same,MIC Enterococcus avium (GC 4558),Enterococcus sp.,4 µg/mL
same,MIC Enterococcus faecalis (GC 6189),Enterococcus sp.,0.5 µg/mL
